Laboratory results reported in PubChem BioAssay AID1963975 (Molecular Pharmacology Branch, DTP, NCI, 2024).

Tested on: 624824-186-R-J2-PDC multicell spheroids, viability
Test: Anticancer human tumor 624824-186-R-J2-PDC patient-derived colon adenocarcinoma cell line growth inhibition [PI3K]
Conditions: for IC50: curve of first compound; for viability, T/C: stronger effect = lower value; active = viability on the fitted dose curve at most 10% of control; inactive = the rest
In short: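 Spheroid viability read-out. Co-cultures contained the tumor line plus HUVEC and human MSCs. Each agent was paired with a PI3K inhibitor (inavolisib, alpelisib, duvelisib, copanlisib) across half-log dilutions starting at clinical Cmax, or at 10 microM when Cmax was unknown.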

[1] = second compound 0.0316 µM, first compound 0.0316 µM
[2] = second compound 0.0316 µM, first compound 0.1 µM
[3] = second compound 0.0316 µM, first compound 0.316 µM
[4] = second compound 0.0316 µM, first compound 1 µM
[5] = second compound 0.0316 µM, first compound 3.16 µM
[6] = second compound 0.0316 µM, first compound 10 µM
[7] = second compound 0.1 µM, first compound 0.0316 µM
[8] = second compound 0.1 µM, first compound 0.1 µM
[9] = second compound 0.1 µM, first compound 0.316 µM
[10] = second compound 0.1 µM, first compound 1 µM
[11] = second compound 0.1 µM, first compound 3.16 µM
[12] = second compound 0.1 µM, first compound 10 µM
[13] = second compound 0.316 µM, first compound 0.0316 µM
[14] = second compound 0.316 µM, first compound 0.1 µM
[15] = second compound 0.316 µM, first compound 0.316 µM
[16] = second compound 0.316 µM, first compound 1 µM
[17] = second compound 0.316 µM, first compound 3.16 µM
[18] = second compound 0.316 µM, first compound 10 µM
[19] = second compound 1 µM, first compound 0.0316 µM
[20] = second compound 1 µM, first compound 0.1 µM
[21] = second compound 1 µM, first compound 0.316 µM
[22] = second compound 1 µM, first compound 1 µM
[23] = second compound 1 µM, first compound 3.16 µM
[24] = second compound 1 µM, first compound 10 µM
[25] = second compound 3.16 µM, first compound 0.0316 µM
[26] = second compound 3.16 µM, first compound 0.1 µM
[27] = second compound 3.16 µM, first compound 0.316 µM
[28] = second compound 3.16 µM, first compound 1 µM
[29] = second compound 3.16 µM, first compound 3.16 µM
[30] = second compound 3.16 µM, first compound 10 µM
[31] = second compound 10 µM, first compound 0.0316 µM
[32] = second compound 10 µM, first compound 0.1 µM
[33] = second compound 10 µM, first compound 0.316 µM
[34] = second compound 10 µM, first compound 1 µM
[35] = second compound 10 µM, first compound 3.16 µM
[36] = second compound 10 µM, first compound 10 µM
[37] = second compound 0.00316 µM, first compound 0.0316 µM
[38] = second compound 0.00316 µM, first compound 0.1 µM
[39] = second compound 0.00316 µM, first compound 0.316 µM
[40] = second compound 0.00316 µM, first compound 1 µM
[41] = second compound 0.00316 µM, first compound 3.16 µM
[42] = second compound 0.00316 µM, first compound 10 µM
[43] = second compound 0.01 µM, first compound 0.0316 µM
[44] = second compound 0.01 µM, first compound 0.1 µM
[45] = second compound 0.01 µM, first compound 0.316 µM
[46] = second compound 0.01 µM, first compound 1 µM
[47] = second compound 0.01 µM, first compound 3.16 µM
[48] = second compound 0.01 µM, first compound 10 µM
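Note: spheroids exposed to agents for 7 days before viability read.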
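Throughout, for viability, T/C: 100% = DMSO vehicle treated spheroids.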

CC(C)NCC(C(=O)N1CCN(c2ncnc3c2C(C)CC3O)CC1)c1ccc(Cl)cc1 (stereo not drawn) + CC(Nc1ncnc2nc[nH]c12)c1cc2cccc(Cl)c2c(=O)n1-c1ccccc1
> 10 µM: IC50 (second compound 0.0316 µM) | IC50 (second compound 0.1 µM) | IC50 (second compound 0.316 µM) | IC50 (second compound 1 µM) | IC50 (second compound 3.16 µM) | IC50 (second compound 10 µM)
inactive: viability, T/C [1] 86.1% | viability, T/C [2] 87.8% | viability, T/C [3] 75.5% | viability, T/C [4] 89.6% | viability, T/C [5] 88.4% | viability, T/C [6] 89.4% | viability, T/C [7] 111% | viability, T/C [8] 84.9% | viability, T/C [9] 88.4% | viability, T/C [10] 82.2% | viability, T/C [11] 85% | viability, T/C [12] 86.6% | viability, T/C [13] 112% | viability, T/C [14] 113% | viability, T/C [15] 71.3% | viability, T/C [16] 95.6% | viability, T/C [17] 81% | viability, T/C [18] 74.7% | viability, T/C [19] 106% | viability, T/C [20] 96.2% | viability, T/C [21] 99.4% | viability, T/C [22] 85% | viability, T/C [23] 90.8% | viability, T/C [24] 89.3% | viability, T/C [25] 85.6% | viability, T/C [26] 104% | viability, T/C [27] 100% | viability, T/C [28] 82.1% | viability, T/C [29] 88.1% | viability, T/C [30] 87.2% | viability, T/C [31] 98.7% | viability, T/C [32] 108% | viability, T/C [33] 103% | viability, T/C [34] 88.1% | viability, T/C [35] 75.5% | viability, T/C [36] 71.4%

Cn1nccc1Nc1nccc(-c2ccn(C(CO)c3ccc(Cl)c(F)c3)c(=O)c2)n1 (stereo not drawn) + Cc1nc(NC(=O)N2CCCC2C(N)=O)sc1-c1ccnc(C(C)(C)C(F)(F)F)c1
1.56 µM: IC50 (second compound 3.16 µM)
> 10 µM: IC50 (second compound 0.0316 µM) | IC50 (second compound 0.1 µM) | IC50 (second compound 0.316 µM) | IC50 (second compound 1 µM)
0.276 µM: IC50 (second compound 10 µM)
active: viability, T/C [36] 5.96%
inactive: viability, T/C [1] 88.2% | viability, T/C [2] 79.8% | viability, T/C [3] 72.2% | viability, T/C [4] 92% | viability, T/C [5] 95.7% | viability, T/C [6] 101% | viability, T/C [7] 68.3% | viability, T/C [8] 68.6% | viability, T/C [9] 78.5% | viability, T/C [10] 81.4% | viability, T/C [11] 108% | viability, T/C [12] 83.2% | viability, T/C [13] 90.1% | viability, T/C [14] 72.8% | viability, T/C [15] 74% | viability, T/C [16] 91.9% | viability, T/C [17] 96.3% | viability, T/C [18] 81.9% | viability, T/C [19] 82.9% | viability, T/C [20] 79% | viability, T/C [21] 65.5% | viability, T/C [22] 74.9% | viability, T/C [23] 76.3% | viability, T/C [24] 52.3% | viability, T/C [25] 80.5% | viability, T/C [26] 61.6% | viability, T/C [27] 65% | viability, T/C [28] 54.6% | viability, T/C [29] 44.2% | viability, T/C [30] 37.3% | viability, T/C [31] 66.4% | viability, T/C [32] 58.6% | viability, T/C [33] 47.8% | viability, T/C [34] 37.8% | viability, T/C [35] 19.2%

CC(C)NCC(C(=O)N1CCN(c2ncnc3c2C(C)CC3O)CC1)c1ccc(Cl)cc1 (stereo not drawn) + CC(Nc1ccc2c(c1)OCCn1cc(N3C(=O)OCC3C(F)F)nc1-2)C(N)=O
inactive: viability, T/C [37] 113% | viability, T/C [38] 113% | viability, T/C [39] 113% | viability, T/C [40] 94.6% | viability, T/C [41] 94.9% | viability, T/C [42] 92.1% | viability, T/C [43] 88.3% | viability, T/C [44] 79.1% | viability, T/C [45] 72.1% | viability, T/C [46] 87% | viability, T/C [47] 90.7% | viability, T/C [48] 79.7% | viability, T/C [1] 98% | viability, T/C [2] 95.4% | viability, T/C [3] 82.7% | viability, T/C [4] 92.8% | viability, T/C [5] 95.4% | viability, T/C [6] 89.4% | viability, T/C [7] 85.7% | viability, T/C [8] 84.6% | viability, T/C [9] 68% | viability, T/C [10] 84.1% | viability, T/C [11] 95.1% | viability, T/C [12] 70.8% | viability, T/C [13] 89.8% | viability, T/C [14] 68.3% | viability, T/C [15] 86% | viability, T/C [16] 86.3% | viability, T/C [17] 91.1% | viability, T/C [18] 91.5% | viability, T/C [19] 95.4% | viability, T/C [20] 87.5% | viability, T/C [21] 94.1% | viability, T/C [22] 83.6% | viability, T/C [23] 96.4% | viability, T/C [24] 74.2%
> 10 µM: IC50 (second compound 0.00316 µM) | IC50 (second compound 0.01 µM) | IC50 (second compound 0.0316 µM) | IC50 (second compound 0.1 µM) | IC50 (second compound 0.316 µM) | IC50 (second compound 1 µM)

CC1(C)CCC(Nc2ncc(C(F)(F)F)c(-c3c[nH]c4c(P(C)(C)=O)c(C#N)ccc34)n2)CN1 (stereo not drawn) + COc1c(OCCCN2CCOCC2)ccc2c3n(c(=NC(=O)c4cnc(N)nc4)nc12)CCN3
2.23 µM: IC50 (second compound 0.0316 µM)
< 0.0316 µM: IC50 (second compound 1 µM)
1.45 µM: IC50 (second compound 0.1 µM)
inactive: viability, T/C [37] 78.3% | viability, T/C [38] 104% | viability, T/C [39] 92.2% | viability, T/C [40] 89.3% | viability, T/C [41] 54.4% | viability, T/C [43] 73.5% | viability, T/C [44] 76.8% | viability, T/C [45] 94.8% | viability, T/C [46] 83.1% | viability, T/C [47] 54.2% | viability, T/C [1] 82.5% | viability, T/C [2] 75.9% | viability, T/C [3] 71.5% | viability, T/C [4] 61.7% | viability, T/C [5] 46.9% | viability, T/C [7] 63.6% | viability, T/C [8] 56.9% | viability, T/C [9] 55.1% | viability, T/C [10] 49.1% | viability, T/C [11] 45.6% | viability, T/C [13] 54% | viability, T/C [14] 51.7% | viability, T/C [15] 47.9% | viability, T/C [16] 43.8% | viability, T/C [17] 35.4% | viability, T/C [19] 43% | viability, T/C [20] 44.8% | viability, T/C [21] 42.7% | viability, T/C [22] 37.2% | viability, T/C [23] 32.5%
3.5 µM: IC50 (second compound 0.00316 µM)
3.48 µM: IC50 (second compound 0.01 µM)
active: viability, T/C [42] 4.77% | viability, T/C [48] 4.78% | viability, T/C [6] 3.67% | viability, T/C [12] 4.59% | viability, T/C [18] 2.98% | viability, T/C [24] 2.59%
0.28 µM: IC50 (second compound 0.316 µM)
